The values below come from patent US9873709B2 (priority 2013, dated 2018).

SMILES strings stand for the structures.

This experiment concerns JAK1-dependent STAT6 phosphorylation downstream of IL-13 stimulation in TF-1 human erythroleukemia cells. Description: cells. The following applies: TF-1, read-out: IL-13-pSTAT6 IC50.
Turning to `CCOC(=O)N1CC=C(c2cccn3nc(Nc4ccc(C(=O)NCc5ccc(C)nc5)cc4)nc23)CC1` [Example 2-245, ethyl 4-[2-[4-[(6-methyl-3-pyridyl)methylcarbamoyl]anilino]-[1,2,4]triazolo[1,5-a]pyridin-8-yl]-3,6-dihydro-2H-pyridine-1-carboxylate], the half-maximal inhibitory concentration (IC50) (usually the concentration needed to halve the response being measured) turned out to be 0.0122 µM.
The value for `CCOC(=O)N1CC=C(c2cccn3nc(Nc4ccc(C(=O)N[C@H]5CCCNC5)cc4)nc23)CC1` [Example 2-250, ethyl 4-[2-[4-[[(3S)-3-piperidyl]carbamoyl]anilino]-[1,2,4]triazolo[1,5-a]pyridin-8-yl]-3,6-dihydro-2H-pyridine-1-carboxylate] was 0.0767 µM; that for `O=C(CCC(F)(F)F)N1CC=C(c2cccn3nc(Nc4ccc(C(=O)N5CCC6(CCCNC6)C5)cc4)nc23)CC1` (stereo not shown) [Example 2-253, 1-[4-[2-[4-(2,9-diazaspiro[4.5]decane-2-carbonyl)anilino]-[1,2,4]triazolo[1,5-a]pyridin-8-yl]-3,6-dihydro-2H-pyridin-1-yl]-4,4,4-trifluoro-butan-1-one] was 0.151 µM; that for `O=C(CCC(F)(F)F)N1CC=C(c2cccn3nc(Nc4ccc(C(=O)N5CCOC6(CCNCC6)C5)cc4)nc23)CC1` [Example 2-254, 4,4,4-trifluoro-1-[4-[2-[4-(1-oxa-4,9-diazaspiro[5.5]undecane-4-carbonyl)anilino]-[1,2,4]triazolo[1,5-a]pyridin-8-yl]-3,6-dihydro-2H-pyridin-1-yl]butan-1-one] was 0.588 µM.
As for `O=C(NC1CCNC1)c1ccc(Nc2nc3c(C4=CCN(C(=O)CCC(F)(F)F)CC4)cccn3n2)cc1` (stereo not shown) [Example 2-255, N-pyrrolidin-3-yl-4-[[8-[1-(4,4,4-trifluorobutanoyl)-3,6-dihydro-2H-pyridin-4-yl][1,2,4]triazolo[1,5 a]pyridin-2-yl]amino]benzamide], the IC50 was 0.297 µM.
`NC1CN(C(=O)c2ccc(Nc3nc4c(C5=CCN(C(=O)CCC(F)(F)F)CC5)cccn4n3)cc2)C1` [Example 2-256, 1-[4-[2-[4-(3-aminoazetidine-1-carbonyl)anilino]-[1,2,4]triazolo[1,5-a]pyridin-8-yl]-3,6-dihydro-2H-pyridin-1-yl]-4,4,4-trifluoro-butan-1-one]: the 50% inhibitory concentration (IC50) stood at 0.0684 µM.
Next, `O=C(CCC(F)(F)F)N1CC=C(c2cccn3nc(Nc4ccc(C(=O)N5CCCC56CCCNC6)cc4)nc23)CC1` (stereo not shown) [Example 2-257, 1-[4-[2-[4-(1,9-diazaspiro[4.5]decane-1-carbonyl)anilino]-[1,2,4]triazolo[1,5-a]pyridin-8-yl]-3,6-dihydro-2H-pyridin-1-yl]-4,4,4-trifluoro-butan-1-one]: 0.0605 µM.
On to `O=C(CCC(F)(F)F)N1CC=C(c2cccn3nc(Nc4ccc(C(=O)N5CCCC56CCNCC6)cc4)nc23)CC1` [Example 2-258, 1-[4-[2-[4-(1,8-diazaspiro[4.5]decane-1-carbonyl)anilino]-[1,2,4]triazolo[1,5-a]pyridin-8-yl]-3,6-dihydro-2H-pyridin-1-yl]-4,4,4-trifluoro-butan-1-one], for which the IC50 is 0.238 µM.
Next, `CN1CCOC2(C1)CN(C(=O)c1ccc(Nc3nc4c(C5=CCN(C(=O)CCC(F)(F)F)CC5)cccn4n3)cc1)C2` [Example 2-259, 4,4,4-trifluoro-1-[4-[2-[4-(8-methyl-5-oxa-2,8-diazaspiro[3.5]nonane-2-carbonyl)anilino]-[1,2,4]triazolo[1,5-a]pyridin-8-yl]-3,6-dihydro-2H-pyridin-1-yl]butan-1-one]: 0.0058 µM; `O=C(CCC(F)(F)F)N1CC=C(c2cccn3nc(Nc4ccc(C(=O)N5CCN(C6CCC6)CC5)cc4)nc23)CC1` [Example 2-260, 1-[4-[2-[4-(4-cyclobutylpiperazine-1-carbonyl)anilino]-[1,2,4]triazolo[1,5-a]pyridin-8-yl]-3,6-dihydro-2H-pyridin-1-yl]-4,4,4-trifluoro-butan-1-one]: 0.0053 µM.
Next, `CN(C)C(=O)C1(c2ccncc2)CCCN1C(=O)c1ccc(Nc2nc3c(C4=CCN(C(=O)CCC(F)(F)F)CC4)cccn3n2)cc1` (stereo not shown) [Example 2-261, N,N-dimethyl-2-(4-pyridyl)-1-[4-[[8-[1-(4,4,4-trifluorobutanoyl)-3,6-dihydro-2H-pyridin-4-yl]-[1,2,4]triazolo[1,5-a]pyridin-2-yl]amino]benzoyl] pyrrolidine-2-carboxamide]: 0.0465 µM.
The value for `CN1CCN(C(=O)C2COCCN2C(=O)c2ccc(Nc3nc4c(C5=CCN(C(=O)CCC(F)(F)F)CC5)cccn4n3)cc2)CC1` (stereo not shown) [Example 2-262, 4,4,4-trifluoro-1-[4-[2-[4-[3-(4-methylpiperazine-1-carbonyl)morpholine-4-carbonyl]anilino]-[1,2,4]triazolo[1,5-a]pyridin-8-yl]-3,6-dihydro-2H-pyridin-1-yl]butane-1-one] was 0.0971 µM.
`CC1CC(C(=O)N2CC=C(c3cccn4nc(Nc5ccc(C(=O)N(C)C6CCN(C)CC6)cc5)nc34)CC2)C1` (stereo not shown) [Example 2-263, N-methyl-4-[[8-[1-(3-methylcyclobutanecarbonyl)-3,6-dihydro-2H-pyridin-4-yl]-[1,2,4]triazolo[1,5-a]pyridin-2-yl]amino]-N-(1-methyl-4-piperidyl)benzamide]: the IC50 stood at 0.0296 µM.
With `CN1CCC(OC(=O)c2ccc(Nc3nc4c(C5=CCN(C(=O)CCC(F)(F)F)CC5)cccn4n3)cc2)CC1` [Example 2-264, (1-methyl-4-piperidyl) 4-[[8-[1-(4,4,4-trifluorobutanoyl)-3,6-dihydro-2H-pyridin-4-yl]-[1,2,4]triazolo[1,5-a]pyridin-2-yl]amino]benzoate], the IC50 is 0.0117 µM.
Next, `O=C(CCC(F)(F)F)N1CC=C(c2cccn3nc(Nc4ccc(C(=O)N5CCCCC5Cc5ccccn5)cc4)nc23)CC1` (stereo not shown) [Example 2-265, 4,4,4-trifluoro-1-[4-[2-[4-[2-(2-pyridylmethyl)piperidine-1-carbonyl]anilino]-[1,2,4]triazolo[1,5-a]pyridin-8-yl]-3,6-dihydro-2H-pyridin-1-yl]butan-1-one]: 0.0042 µM; `CC(C)CN1CCN(C(=O)c2ccc(Nc3nc4c(C5=CCN(C(=O)CCC(F)(F)F)CC5)cccn4n3)cc2)CC1` [Example 2-266, 4,4,4-trifluoro-1-[4-[2-[4-(4-isobutylpiperazine-1-carbonyl)anilino]-[1,2,4]triazolo[1,5-a]pyridin-8-yl]-3,6-dihydro-2H-pyridin-1-yl]butan-1-one]: 0.0097 µM; `CN1CCC(N(C)C(=O)c2ccc(Nc3nc4c(C5=CCN(C(=O)CCC(F)(F)F)CC5)cccn4n3)cc2)C1` (stereo not shown) [Example 2-267, N-methyl-N-(1-methylpyrrolidin-3-yl)-4-[[8-[1-(4,4,4-trifluorobutanoyl)-3,6-dihydro-2H-pyridin-4-yl]-[1,2,4]triazolo[1,5-a]pyridin-2-yl]amino]benzamide]: 0.0087 µM.
Regarding `CC1CC(C)CN(CCNC(=O)c2ccc(Nc3nc4c(C5=CCN(C(=O)CCC(F)(F)F)CC5)cccn4n3)cc2)C1` (stereo not shown) [Example 2-269, N-[2-(3,5-dimethyl-1-piperidyl)ethyl]-4-[[8-[1-(4,4,4-trifluorobutanoyl)-3,6-dihydro-2H-pyridin-4-yl]-[1,2,4]triazolo[1,5-a]pyridin-2-yl]amino]benzamide], the half-inhibitory concentration (IC50) worked out at 0.0051 µM.
The value for `CN1CCN(CCNC(=O)c2ccc(Nc3nc4c(C5=CCN(C(=O)CCC(F)(F)F)CC5)cccn4n3)cc2)CC1` [Example 2-270, N-[2-(4-methylpiperazin-1-yl)ethyl]-4-[[8-[1-(4,4,4-trifluorobutanoyl)-3,6-dihydro-2H-pyridin-4-yl]-[1,2,4]triazolo[1,5-a]pyridin-2-yl]amino]benzamide] was 0.0164 µM.
Next, `O=C(CCC(F)(F)F)N1CC=C(c2cccn3nc(Nc4ccc(C(=O)N5CCCC5c5ccncc5)cc4)nc23)CC1` (stereo not shown) [Example 2-273, 4,4,4-trifluoro-1-[4-[2-[4-[2-(4-pyridyl)pyrrolidine-1-carbonyl]anilino]-[1,2,4]triazolo[1,5-a]pyridin-8-yl]-3,6-dihydro-2H-pyridin-1-yl]butan-1-one]: 0.0055 µM; `CN1CCC(CCNC(=O)c2ccc(Nc3nc4c(C5=CCN(C(=O)CCC(F)(F)F)CC5)cccn4n3)cc2)CC1` [Example 2-274, N-[2-(1-methyl-4-piperidyl)ethyl]-4-[[8-[1-(4,4,4-trifluorobutanoyl)-3,6-dihydro-2H-pyridin-4-yl]-[1,2,4]triazolo[1,5-a]pyridin-2-yl]amino]benzamide]: 0.045 µM; `CNC(=O)C1CN(C(=O)c2ccc(Nc3nc4c(C5=CCN(C(=O)CCC(F)(F)F)CC5)cccn4n3)cc2)CCN1C` (stereo not shown) [Example 2-275, N,1-dimethyl-4-[4-[[8-[1-(4,4,4-trifluorobutanoyl)-3,6-dihydro-2H-pyridin-4-yl]-[1,2,4]triazolo[1,5-a]pyridin-2-yl]amino]benzoyl] piperazine-2-carboxamide]: 0.0372 µM.
The value for `CNC(=O)C1CN(C)CCN1C(=O)c1ccc(Nc2nc3c(C4=CCN(C(=O)CCC(F)(F)F)CC4)cccn3n2)cc1` (stereo not shown) [Example 2-276, N,4-dimethyl-1-[4-[[8-[1-(4,4,4-trifluorobutanoyl)-3,6-dihydro-2H-pyridin-4-yl]-[1,2,4]triazolo[1,5-a]pyridin-2-yl]amino]benzoyl] piperazine-2-carboxamide] was 0.129 µM; that for `O=C(CCC(F)(F)F)N1CC=C(c2cccn3nc(Nc4ccc(C(=O)N5CCC(Cc6cccnc6)CC5)cc4)nc23)CC1` [Example 2-277, 4,4,4-trifluoro-1-[4-[2-[4-[4-(3-pyridylmethyl)piperidine-1-carbonyl]anilino]-[1,2,4]triazolo[1,5-a]pyridin-8-yl]-3,6-dihydro-2H-pyridin-1-yl]butan-1-one] was 0.0198 µM.
Consider `O=C(CCC(F)(F)F)N1CC=C(c2cccn3nc(Nc4ccc(C(=O)N5CCCN(c6ccncc6)CC5)cc4)nc23)CC1` [Example 2-278, 4,4,4-trifluoro-1-[4-[2-[4-[4-(4-pyridyl)-1,4-diazepane-1-carbonyl]anilino]-[1,2,4]triazolo[1,5-a]pyridin-8-yl]-3,6-dihydro-2H-pyridin-1-yl]butan-1-one], for which the half-inhibitory concentration (IC50) is 0.0393 µM.
